Values after ≈ are worked out from the molar mass of the structure shown.
Key:
[1] = target: T1, elastase from porcine pancreas (Sus scrofa, UniProt P00772); assay: spectrophotometric elastase inhibition assay; format: biochemical; settings: read-out: IC50 (mg/mL) / Elastase inhibition (converted)
T1 construct: gene CELA1; native enzyme from pancreas, lyophilised powder (Sigma-Aldrich); mature form
Text: spectrophotometric elastase inhibition assay on elastase from porcine pancreas

[2] = target: T2, metalloproteinase-1 (MMP-1) from Clostridium histolyticum (ChC); assay: spectrophotometric MMP-1 (collagenase) inhibition assay; format: biochemical, Hathewaya histolytica; settings: substrate FALGPA; positive control
T2 construct: gene colG; native collagenase preparation (Sigma-Aldrich)
Text: spectrophotometric MMP-1 (collagenase) inhibition assay on metalloproteinase-1 (MMP-1) from Clostridium histolyticum (ChC)

T1 sequence (P00772 27-266): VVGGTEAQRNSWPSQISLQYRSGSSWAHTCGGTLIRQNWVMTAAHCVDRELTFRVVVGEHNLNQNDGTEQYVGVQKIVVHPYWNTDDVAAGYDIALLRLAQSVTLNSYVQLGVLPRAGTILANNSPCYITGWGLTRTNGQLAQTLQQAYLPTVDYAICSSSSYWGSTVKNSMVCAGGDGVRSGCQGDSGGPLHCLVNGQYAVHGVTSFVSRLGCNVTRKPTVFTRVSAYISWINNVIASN

Structure (SMILES)	IC50 [1] [nM]	IC50 (mg/mL) / MMP-1 inhibition [2] [mg/mL]
O=C(O[C@@H]1Cc2c(O)cc(O)cc2O[C@@H]1c1cc(O)c(O)c(O)c1)c1cc(O)c(O)c(O)c1 [EGCG, epigallocatechin gallate]	2180	–
CC1(C)CC[C@]2(C(=O)O)CC[C@]3(C)C(=CC[C@@H]4[C@@]5(C)CC[C@H](O)C(C)(C)[C@@H]5CC[C@]43C)[C@@H]2C1 [OA, oleanolic acid]	–	0.002 ± 0.000 (≈ 4.38 µM)

Reference: publication PMC8786250, “Comparison of chemical profiles, antioxidation, inhibition of skin extracellular matrix degradation, and anti-tyrosinase activity between mycelium and fruiting body of Cordyceps militaris and Isaria tenuipes” (Pharmaceutical Biology, 2022)
